Read-outs that look alike come from different tables or passages of the source.

The source of these data is patent publication US12643912B2, “Macrocyclic compounds, a process for their preparation and pharmaceutical compositions containing them” (LES LABORATOIRES SERVIER, priority 2020, dated 2026).

Experiment [1] has as its system Nrf2 (Keap1-NRF2 nuclear translocation). Kind of experiment: U2OS translocation assay (PathHunter U2OS Keap1-NRF2 Nuclear Translocation Cell Line). In kind it is cell-based. A digest of the protocol: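 PathHunter U2OS line expressing Nrf2-enzyme-donor fusion and nuclear acceptor enzyme, 7 500 cells/well in Opti-MEM, 1% FBS. Compounds incubated 3 h at 37° C. Luminescence after 60 min with detection reagent, normalized between 1% DMSO and 10 μM andrographolide.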

The target of a further experiment is T1, Keap1 (A321-C624) (h) (Homo sapiens, UniProt Q14145).
T1 construct: His-Thromb-KEAP1(A321-C624) acquired from Novalix (batch PU-P01) was immobilized covalently by amine coupling; His tag (N); thrombin cleavage site (Thromb) (N); purchased Novalix batch PU-P01
Kind of experiment: Surface Plasmon Resonance binding assay to Kelch domain of KEAP1. Particulars: Biacore T200, 25° C., immobilized His-Thromb-KEAP1(A321-C624), single cycle kinetics, KD=kd/ka from 1:1 fit; read-out: Keap1 (A321-C624) (h) direct/SPR (KD). The procedure:
EXAMPLE 85: SURFACE PLASMON RESONANCE
Binding assay to Kelch domain of KEAP1 was performed by Surface Plasmon Resonance (SPR) on a Biacore T200 (GE Healthcare) at 25° C. using CM5 chip. His-Thromb-KEAP1(A321-C624) acquired from Novalix (batch PU-P01) was immobilized covalently by amine coupling using standard wizard protocol, at a concentration of 20 μg/mL in sodium acetate pH 5.5. The ligand was captured until 1250 RU was reached. Amine blank is used as the reference flow cell. Binding of analyte to the ligand was monitored in real time with associations of 180 seconds and a dissociation of 720 seconds. Association (ka) and dissociation (kd) rates were fitted with a simple 1:1 kinetic interaction model using Biacore T200 Evaluation Software (GE Healthcare). The equilibrium constant (KD=kd/ka) was calculated from these fitted parameters. […] The Biacore binding assay was performed with a flowrate of 50 μL/min using a running buffer of 10 mM HEPES (pH 7.4), 150 mM NaCl, 3 mM EDTA, 1 mM TCEP, 0.05% P20,5% DMSO. Double subtraction was used by subtracting both reference flow cell and previous blank cycle (with running buffer). Solvent correction was applied to correct DMSO bulk effect.

[2] abbreviates: read-out: CELLULAR U2OS EC50, U2OS Keap1-NRF2 nuclear translocation cells, 3 h incubation, luminescence, normalized between 1% DMSO and 10 μM andrographolide.
[3] abbreviates: Homo sapiens, U2OS, 3 h, read-out: CELLULAR U2OS EC50 (nM), U2OS Keap1-NRF2 nuclear translocation cells, 3 h incubation, luminescence, normalized between 1% DMSO and 10 μM andrographolide.

T1 sequence (Q14145 321-624): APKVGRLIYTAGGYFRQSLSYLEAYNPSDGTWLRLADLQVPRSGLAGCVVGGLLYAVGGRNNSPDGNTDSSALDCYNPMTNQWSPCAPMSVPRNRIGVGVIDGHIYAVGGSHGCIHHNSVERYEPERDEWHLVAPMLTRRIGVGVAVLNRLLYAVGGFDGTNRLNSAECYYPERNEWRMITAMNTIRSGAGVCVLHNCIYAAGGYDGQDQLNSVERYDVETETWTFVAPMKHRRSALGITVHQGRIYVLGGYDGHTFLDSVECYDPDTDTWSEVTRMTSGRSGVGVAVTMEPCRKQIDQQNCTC

For orientation: EC50 means the concentration needed to bring the measured effect to its halfway point. `Cc1ccc2cc1CN1Cc3cc(c(F)cc3OS1(=O)=O)OCCCCn1nnc3c(C)c(ccc31)C2CC(=O)O` (single isomer, unassigned) [Example 32a, [23-Fluoro-4,31-dimethyl-27,27-dioxo-21,26-dioxa-27λ^6-thia-1,14,15,16-tetraazahexacyclo[20.5.3.1^3,70.1^9,130.0^12,160.0^25,29]dotriaconta-3(32),4,6,9(31),10,12,14,22,24,29-decaen-8-yl]acetic acid]: the EC50 in experiment [1] (setting [2]) stood at 20 nM. On Keap1 (A321-C624) (h), the Kd came out at 0.645 nM.
As to `Cc1ccc2cc1CN1Cc3cc(c(F)cc3OS1(=O)=O)OCCCCn1nnc3c(C)c(ccc31)C2CC(=O)O` (single isomer, unassigned) [Example 32b, [23-Fluoro-4,31-dimethyl-27,27-dioxo-21,26-dioxa-27λ^6-thia-1,14,15,16-tetraazahexacyclo[20.5.3.1^3,70.1^9,130.0^12,160.0^25,29]dotriaconta-3(32),4,6,9(31),10,12,14,22,24,29-decaen-8-yl]acetic acid], in experiment [1] (setting [2]), the 50% effective concentration (EC50) stood at 150 nM. The Kd on Keap1 (A321-C624) (h) was 2.02 nM.
Turning to `Cc1c(Cl)cc2cc1CN1Cc3cc(ccc3OS1(=O)=O)OCCCCn1nnc3c(C)c(ccc31)C2CC(=O)O` (single isomer, unassigned) [Example 33a, [5-Chloro-4,31-dimethyl-27,27-dioxo-21,26-dioxa-27λ^6-thia-1,14,15,16-tetraazahexacyclo[20.5.3.1^3,70.1^9,130.0^12,160.0^25,29]dotriaconta-3(32),4,6,9(31),10,12,14,22,24,29-decaen-8-yl]acetic acid], in experiment [1] (setting [2]), the EC50 came to 94.5 nM. Further, the Kd at Keap1 (A321-C624) (h) came to 4.55 nM.
In the same order, the values of `Cc1c(Cl)cc2cc1CN1Cc3cc(ccc3OS1(=O)=O)OCCCCn1nnc3c(C)c(ccc31)C2CC(=O)O` (single isomer, unassigned) [Example 33b, [5-Chloro-4,31-dimethyl-27,27-dioxo-21,26-dioxa-27λ^6-thia-1,14,15,16-tetraazahexacyclo[20.5.3.1^3,70.1^9,130.0^12,160.0^25,29]dotriaconta-3(32),4,6,9(31),10,12,14,22,24,29-decaen-8-yl]acetic acid] are 894 nM and 9.29 nM.
For the compound `COc1cc2cc(c1OC)CN1Cc3cc(ccc3OS1(=O)=O)OCCCCn1nnc3c(C)c(ccc31)C2CC(=O)O` (single isomer, unassigned) [Example 35a, [4,5-Dimethoxy-31-methyl-27,27-dioxo-21,26-dioxa-27λ^6-thia-1,14,15,16-tetraazahexacyclo[20.5.3.1^3,70.1^9,130.0^12,160.0^25,29]dotriaconta-3(32),4,6,9(31),10,12,14,22,24,29-decaen-8-yl]acetic acid], the EC50 in experiment [1] (setting [3]) is more than 3160 nM. The Kd on Keap1 (A321-C624) (h) stood at 33600 nM.
Consider `COc1cc2cc(c1OC)CN1Cc3cc(ccc3OS1(=O)=O)OCCCCn1nnc3c(C)c(ccc31)C2CC(=O)O` (single isomer, unassigned) [Example 35b, [4,5-Dimethoxy-31-methyl-27,27-dioxo-21,26-dioxa-27λ^6-thia-1,14,15,16-tetraazahexacyclo[20.5.3.1^3,70.1^9,130.0^12,160.0^25,29]dotriaconta-3(32),4,6,9(31),10,12,14,22,24,29-decaen-8-yl]acetic acid], for which the EC50 in experiment [1] (setting [2]) is more than 3160 nM. Besides, the Kd on Keap1 (A321-C624) (h) was 7450 nM.
On to `Cc1cc2cc(c1Cl)CN1Cc3cc(ccc3OS1(=O)=O)OCCCCn1nnc3c(C)c(ccc31)C2CC(=O)O` (single isomer, unassigned) [Example 36a, [4-Chloro-5,31-dimethyl-27,27-dioxo-21,26-dioxa-27λ^6-thia-1,14,15,16-tetraazahexacyclo[20.5.3.1^3,70.1^9,130.0^12,160.0^25,29]dotriaconta-3(32),4,6,9(31),10,12,14,22,24,29-decaen-8-yl]acetic acid], for which the EC50 in experiment [1] (setting [2]) was determined as 126 nM. At Keap1 (A321-C624) (h), the Kd was determined as 9.02 nM.
On to `Cc1cc2cc(c1Cl)CN1Cc3cc(ccc3OS1(=O)=O)OCCCCn1nnc3c(C)c(ccc31)C2CC(=O)O` (single isomer, unassigned) [Example 36b, [4-Chloro-5,31-dimethyl-27,27-dioxo-21,26-dioxa-27λ^6-thia-1,14,15,16-tetraazahexacyclo[20.5.3.1^3,70.1^9,130.0^12,160.0^25,29]dotriaconta-3(32),4,6,9(31),10,12,14,22,24,29-decaen-8-yl]acetic acid], for which the EC50 in experiment [1] (setting [2]) turned out to be 1260 nM. In addition, on Keap1 (A321-C624) (h), the Kd worked out at 32.5 nM.
As for `COc1c(Cl)cc2cc1CN1Cc3cc(ccc3OS1(=O)=O)OCCCCn1nnc3c(C)c(ccc31)C2CC(=O)O` (single isomer, unassigned) [Example 37a, [5-Chloro-4-methoxy-31-methyl-27,27-dioxo-21,26-dioxa-27λ^6-thia-1,14,15,16-tetraazahexacyclo[20.5.3.1^3,70.1^9,130.0^12,160.0^25,29]dotriaconta-3(32),4,6,9(31),10,12,14,22,24,29-decaen-8-yl]acetic acid], in experiment [1] (setting [2]), the EC50 stood at 1300 nM. For the same compound, the Kd at Keap1 (A321-C624) (h) turned out to be 75.1 nM.
In the case of `COc1c(Cl)cc2cc1CN1Cc3cc(ccc3OS1(=O)=O)OCCCCn1nnc3c(C)c(ccc31)C2CC(=O)O` (single isomer, unassigned) [Example 37b, [5-Chloro-4-methoxy-31-methyl-27,27-dioxo-21,26-dioxa-27λ^6-thia-1,14,15,16-tetraazahexacyclo[20.5.3.1^3,70.1^9,130.0^12,160.0^25,29]dotriaconta-3(32),4,6,9(31),10,12,14,22,24,29-decaen-8-yl]acetic acid], the EC50 in experiment [1] (setting [2]) is more than 3160 nM. Further, the Kd at Keap1 (A321-C624) (h) came out at 529 nM.
Turning to `COc1cc2cc(c1Cl)CN1Cc3cc(ccc3OS1(=O)=O)OCCCCn1nnc3c(C)c(ccc31)C2CC(=O)O` (single isomer, unassigned) [Example 38b, [4-Chloro-5-methoxy-31-methyl-27,27-dioxo-21,26-dioxa-27λ^6-thia-1,14,15,16-tetraazahexacyclo[20.5.3.1^3,70.1^9,130.0^12,160.0^25,29]dotriaconta-3(32),4,6,9(31),10,12,14,22,24,29-decaen-8-yl]acetic acid], in experiment [1] (setting [3]), the EC50 is more than 3160 nM. Moreover, at Keap1 (A321-C624) (h), the Kd is 604 nM.
As to `Cc1ccc2cc1CN1Cc3cc(ccc3N(C)S1(=O)=O)OCCCCn1nnc3c(C)c(ccc31)C2CC(=O)O` (single isomer, unassigned) [Example 39a, [4,26,31-Trimethyl-27,27-dioxo-21-oxa-27λ^6-thia-1,14,15,16,26-pentaazahexacyclo[20.5.3.1^3,70.1^9,130.0^12,160.0^25,29]dotriaconta-3(32),4,6,9(31),10,12,14,22,24,29-decaen-8-yl]acetic acid], the EC50 in experiment [1] (setting [2]) came to 14.2 nM. The Kd on Keap1 (A321-C624) (h) amounted to 0.137 nM.
With `Cc1ccc2cc1CN1Cc3cc(ccc3N(C)S1(=O)=O)OCCCCn1nnc3c(C)c(ccc31)C2CC(=O)O` (single isomer, unassigned) [Example 39b, [4,26,31-Trimethyl-27,27-dioxo-21-oxa-27λ^6-thia-1,14,15,16,26-pentaazahexacyclo[20.5.3.1^3,70.1^9,130.0^12,160.0^25,29]dotriaconta-3(32),4,6,9(31),10,12,14,22,24,29-decaen-8-yl]acetic acid], the 50% effective concentration (EC50) in experiment [1] (setting [2]) came out at 79.5 nM. Moreover, the Kd at Keap1 (A321-C624) (h) worked out at 0.685 nM.
For the compound `Cc1ccc2cc1CN1Cc3cc(ccc3OS1(=O)=O)OC[C@H](C)CCn1nnc3c(C)c(ccc31)C2CC(=O)O` (single isomer, unassigned) [Example 45a], in experiment [1] (setting [2]), the EC50 was determined as 11.8 nM. Also, at Keap1 (A321-C624) (h), the Kd stood at 0.594 nM.
